The subject of one test is 1α (OH)-ase gene. Kind of test: Northern blot of CYP1AD (1α(OH)-ase) gene expression in mice given excess 1α,25(OH)2D3. In kind it is in vivo. The note with it: 50 ng/mouse. The source says:
The tissue distribution of CYP1AD transcripts in 7-week-old normal and VDR−/− mice was examined. Poly(A)^+ RNA was extracted from brain, lung, heart, liver, spleen, kidney, small intestine, skeletal muscle, skin, and bone, and analyzed by northern blot technique using cDNA of CYP1AD and β-actin as probes (K. Takeyama et al., Biochem. Biophys. Res. Commun. 222, 395 (1996); H. Mano et al., J. Biol. Chem. 269, 1591 (1994)). As the result, the transcript of CYP1AD was detected as a single band in the kidney. The size of the transcript (2.4 kbp) is identical to that of cloned cDNA (FIG. 10). Except for kidney, in, 1α (OH)-ase activity has been reported in other tissues than kidney (A. W. Norman, J. Roth, L. Orchi, Endocr. Rev. 3, 331 (1982); H. F. DeLuca, Adv. Exp. Med. Biol. 196, 361 (1986); M. R. Walters, Endocr. Rev 13, 719 (1992); G. A. Howard, R. T. Turner, D. J. Sherrard, D. J. Baylink, J. Biol. Chem. 256, 7738 (1981); T. K. Gray, G. E. Lester, R. S. Lorenc, Science 204, 1311 (1979)). However, the transcript of 1α (OH)-ase was not detected in tissues other than kidney in this experiment.
The relative amount of the hydroxylase gene standardized with the β-actin gene transcripts was measured in at least 5 mice for each group (FIG. 12).

The test system of another test is GAL4-VDR(DEF). Kind of test: CAT reporter assay in COS-1 cells co-transformed with GAL4-VDR(DEF) and 17M2-G-CAT. The test is classed as cell-based.

With `C=C1/C(=C\C=C2/CCC[C@]3(C)[C@@H]([C@H](C)CCCC(C)(C)O)CC[C@@H]23)C[C@@H](O)C[C@@H]1O` [1α,25(OH)2D3, 1α,25-Dihydroxyvitamin D3], the “expression of the 1α (OH)-ase gene” value in the test with 1α (OH)-ase gene (3- and 7-week-old VDR−/− mice) is reported as “the inhibition did not occurred”; in the test on 1α (OH)-ase gene (VDR+/+ and VDR+/− mice), “significantly inhibited”.

As for `C=C1CC[C@H](O)C/C1=C/C=C1\CCC[C@]2(C)[C@@H]([C@H](C)CCCC(C)(C)O)CC[C@@H]12` [25(OH)D3, 25-hydroxyvitamin D3], the “activation of the CAT reporter gene” value with GAL4-VDR(DEF) (CYP1AD expressed, with ADX and ADR expression vectors) is given as “activated the CAT reporter gene”; in the test with GAL4-VDR(DEF) (in the absence of ADX or ADR), “did not significantly activate the reporter gene”.

The values are drawn from patent US20050186617A1, “Gene screening method using nuclear receptor” (Chugai Seiyaku Kabushiki Kaisha, a Japanese corporation, priority 1997, published 2005).
